Source: paper PMC4926433, “Isoquercitrin Esters with Mono- or Dicarboxylic Acids: Enzymatic Preparation and Properties” (International Journal of Molecular Sciences, 2016)
Values joined by “and” are separate entries in the source; they are usually repeats but may differ in a detail not shown here. Equal entries are not always repeated. Where two headings read alike, the source gives them in different places. Marks after values point to notes of the source that are not given here.

How the values were obtained:
[1] = Folin–Ciocalteau reduction (FCR) assay, reducing capacity; type: biochemical; details: gallic acid equivalents, mean ± SE
Protocol: Folin-Ciocalteu assay, commonly known as the total phenols assay, determines a sample reducing capacity. FCR contains heteropolyphosphotunstate-molybdates, which are reduced in aqueous milieu at pH ≈ 10 to blue species, presumably (PMoW11O40)^4- [29]. […] This is probably related to high hydrophobicity of these derivatives. Reducing capacity was evaluated using Folin-Ciocalteau reagent with minor modifications as described previously.

[2] = DPPH radical scavenging assay; type: biochemical; details: methanol, DPPH 20 µM, 30 min; mean ± SE
Protocol: When reduced, the solution decolorizes in proportion to the strength and concentration of the antiradical compound tested. The results of this test are usually expressed as the concentration of the compound that reduces 50% of the radical (IC50, Table 1). […] However, no clear relationship between the carboxylic chain length and DPPH radical scavenging activity could be established. Antiradical activity was evaluated spectrophotometrically as the ability of the substances to reduce the DPPH radical as described previously with minor modifications.

[3] = ABTS radical cation scavenging (Antioxidant Assay Kit); type: biochemical; details: Trolox equivalents; aqueous buffer pH 5; mean ± SE
Protocol: Determination of ABTS scavenging activity involves an electron-transfer reaction. […] The capacity to scavenge the radical cation (ABTS^·) was evaluated using the Antioxidant Assay Kit (CS0790, Sigma-Aldrich, Prague, Czech Republic) and expressed as Trolox equivalents (TE) from the Trolox calibration curve.

[4] = test system: rat liver microsomal membranes; experiment: Inhibition of microsomal lipid peroxidation induced by tert-butyl hydroperoxide (TBARS); type: biochemical; details: male rat liver microsomes, tert-butylhydroperoxide 1 mM, 37 °C, 30 min, TBARS, mean ± SE, read-out: Lpx (IC50; µM)
Description: Lipid peroxidation is a type of oxidative degradation of lipids caused by free radicals in cell membranes, resulting in cell damage. The most notable initiators of this chain reaction in living cells are reactive oxygen species (ROS), such as OH· and HO2·, which combine with a hydrogen atom to make water and a fatty acid radical. We used tert-butyl hydroperoxide, a relatively stable organic peroxide, as initiator of peroxidation of rat liver microsomal membranes. The inhibition of this reaction depends not only on the free radical scavenging capacity, but also on the capacity of these compounds to interact with and penetrate lipid bilayers. Isoquercitrin derivatives differed considerably in their capacity to inhibit the peroxidation of microsomal membranes. […] A similar trend, e.g., improving the activity in medium chain derivatives with subsequent drop for longer chain esters, was reported for anti-proliferative activity of IQ monocarboxylic acid esters on the growth of tumoral Caco2 cells, and also for the inhibition of tyrosinase activity.
Pooled microsomes from male rat livers (M9066, Sigma-Aldrich, Prague, Czech Republic) were washed five times using centrifugation and phosphate-buffered saline (PBS, 13,500 rpm, 5 min, 4 °C) to remove sucrose. In addition, 400 µL of the diluted microsomal suspension (0.625 mg protein/mL in PBS), the compounds tested in 50 µL of dimethyl sulfoxide (DMSO, final concentration 5–2000 µM) and 50 µL of tert-butylhydroperoxide in PBS (final concentration 1 mM) were mixed and incubated at 37 °C for 30 min. Determination of lipid peroxidation products as thiobarbituric acid reactive substances (TBARS) and calculation of the IC50 values were performed as described previously.

[5] = Partition coefficient (log P) in octan-1-ol/phosphate buffer pH 7.4; details: for logP: octan-1-ol / 6.6 mM phosphate buffer pH 7.4, pH 7.4; for Partition Coefficient: octan-1-ol/6.6 mM phosphate buffer pH 7.4, 25 °C, mean ± SD, triplicate
Protocol: The hydrophobicity of the prepared compounds was determined by the measurement of partition coefficient P in a mixture of two immiscible phases—octan-1-ol and 6.6 mM phosphate buffer pH 7.4 to simulate physiological conditions. Before the use, octan-1-ol was stirred with the buffer for 16 h at 25 °C to achieve saturation of both phases, which were then separated.
Then, 150 µL of the stock solutions were mixed with 150 µL of the respective immiscible phase in microcentrifuge tubes (1.5 mL) and stirred (750 rpm) for 2 h at 25 °C in triplicates. Phases were separated and the solute concentration in each phase was determined in 96-well microtitration plates using Sunrise™ spectrophotometer (Schoeller Instruments, Prague, Czech Republic) at 400 nm. Log P was calculated as follows: log Poct/buffer = log([A]octan-1-ol/[A]buffer).

| Compound | FCR (GAE) [1] | IC50 [2] [µM] | ABTS (TE) [3] | IC50 [4] [µM] | logP [5] | Partition Coefficient [5] | FCR (GAE) ([1]; listed as quercetin) | IC50 ([4]; listed as quercetin) [µM] |
| --- | --- | --- | --- | --- | --- | --- | --- | --- |
| CCCCCCCC(=O)OC[C@H]1O[C@@H](Oc2c(-c3ccc(O)c(O)c3)oc3cc(O)cc(O)c3c2=O)[C@H](O)[C@@H](O)[C@@H]1O [Compound 6, ((2R,3S,4S,5R,6S)-6-((2-(3,4-Dihydroxyphenyl)-5,7-dihydroxy-4-oxo-4H-chromen-3-yl)oxy)-3,4,5-trihydroxytetrahydro-2H-pyran-2-yl)methyl octanoate] | 1.47 ± 0.10 ^b GAE | 2.23 ± 0.08 | 1.28 ± 0.07 TE | 186 ± 3 | – | – | – | – |
| O=C(O)CCCC(=O)OC[C@H]1O[C@@H](Oc2c(-c3ccc(O)c(O)c3)oc3cc(O)cc(O)c3c2=O)[C@H](O)[C@@H](O)[C@@H]1O [Compound 9, 6-(((2R,3S,4S,5R,6S)-6-((2-(3,4-Dihydroxyphenyl)-5,7-dihydroxy-4-oxo-4H-chromen-3-yl)oxy)-3,4,5-trihydroxytetrahydro-2H-pyran-2-yl)methoxy)-6-oxopentanoic acid] | 1.84 ± 0.05 ^a GAE | 1.77 ± 0.06 | 2.13 ± 0.08 ^i TE | 1340 ± 54 | -1.15 | 0.07 ± 0.01 | – | – |
| O=C(O)CCCCC(=O)OC[C@H]1O[C@@H](Oc2c(-c3ccc(O)c(O)c3)oc3cc(O)cc(O)c3c2=O)[C@H](O)[C@@H](O)[C@@H]1O [Compound 10, 6-(((2R,3S,4S,5R,6S)-6-((2-(3,4-Dihydroxyphenyl)-5,7-dihydroxy-4-oxo-4H-chromen-3-yl)oxy)-3,4,5-trihydroxytetrahydro-2H-pyran-2-yl)methoxy)-6-oxohexanoic acid] | 1.46 ± 0.14 ^b GAE | 2.19 ± 0.12 | 2.12 ± 0.10 ^i TE | 250 ± 19 | -1 | 0.10 ± 0.01 | – | – |
| quercetin [reference compound] | 2.80 ± 0.16 GAE | 3.78 ± 0.15 | 2.14 ± 0.10 ^i TE | 29.8 ± 0.6 | – | – | 2.80 | 30 |
| CCCCCCCCCCCCCCCC(=O)OC[C@H]1O[C@@H](Oc2c(-c3ccc(O)c(O)c3)oc3cc(O)cc(O)c3c2=O)[C@H](O)[C@@H](O)[C@@H]1O [Compound 8, ((2R,3S,4S,5R,6S)-6-((2-(3,4-Dihydroxyphenyl)-5,7-dihydroxy-4-oxo-4H-chromen-3-yl)oxy)-3,4,5-trihydroxytetrahydro-2H-pyran-2-yl)methyl palmitate] | 0.76 GAE and 0.76 ± 0.03 ^c GAE | 2.23 ± 0.03 | 1.0 TE and 1.00 ± 0.06 ^j TE | 1090 ± 36 | – | – | – | – |
| CCCC(=O)OC[C@H]1O[C@@H](Oc2c(-c3ccc(O)c(O)c3)oc3cc(O)cc(O)c3c2=O)[C@H](O)[C@@H](O)[C@@H]1O [Compound 4, ((2R,3S,4S,5R,6S)-6-((2-(3,4-Dihydroxyphenyl)-5,7-dihydroxy-4-oxo-4H-chromen-3-yl)oxy)-3,4,5-trihydroxytetrahydro-2H-pyran-2-yl)methyl butyrate] | 1.72 ± 0.03 ^a GAE | 2.51 ± 0.17 | 2.16 ± 0.08 ^i TE | 24.1 ± 0.8 | 1.96 | 90.64 ± 0.03 | – | – |
| O=c1c(O)c(-c2ccc(O)c(O)c2)oc2cc(O)cc(O)c12 [Quercetin, quercetin, reference compound] | – | – | – | – | – | 86.27 ± 0.02 | – | – |
| CCCCCCCCCCCC(=O)OC[C@H]1O[C@@H](Oc2c(-c3ccc(O)c(O)c3)oc3cc(O)cc(O)c3c2=O)[C@H](O)[C@@H](O)[C@@H]1O [Compound 7, ((2R,3S,4S,5R,6S)-6-((2-(3,4-Dihydroxyphenyl)-5,7-dihydroxy-4-oxo-4H-chromen-3-yl)oxy)-3,4,5-trihydroxytetrahydro-2H-pyran-2-yl)methyl dodecanoate] | 0.63 GAE and 0.63 ± 0.07 ^c GAE | 1.58 ± 0.05 | 1.06 ± 0.09 ^j TE | 432 ± 24 | – | – | – | – |
